According to patent US8076285B2, “Lysobactin amides” (Aicuris GmbH & Co. KG, priority 2006, dated 2011):
Values after ≈ are worked out from the molar mass of the structure shown. Where two headings read alike, the source gives them in different places. *1 amine or outer side, *2 acyl side, *3 side chain or, on linkers, in order; H or OH if unused. Where a SMILES comes first, the peptide text is derived from it. Bridges are numbered along the chain shown (N, C = ends). [ ]: non-standard residue; d: D form. ξ: configuration not given here. Phe(3R-OH) = O=C([C@@H](N[*:1])[C@H](O[*:3])c1ccccc1)[*:2]; Phe(βR-NH) = O=C([C@@H](N[*:1])[C@H](N[*:3])c1ccccc1)[*:2]; Asn(3S-OH) = NC(=O)[C@@H](O)[C@H](N)C(=O)O; Leu(3R-OH) = CC(C)[C@@H](O)[C@H](N)C(=O)O; X1 = NC(=O)[C@@H](O)C(N[*:1])C(=O)[*:2]; dAla(TMS) = C[Si](C)(C)C[C@@H](N)C(=O)O; d(tBuAla) = CC(C)(C)C[C@@H](N)C(=O)O; tBuAla = CC(C)(C)C[C@H](N)C(=O)O; 3Pal = N[C@@H](Cc1cccnc1)C(=O)O; aThr = C[C@H](O)[C@H](N)C(=O)O; ξIle = CC[C@H](C)C(N)C(=O)O; Nle = CCCC[C@H](N)C(=O)O; ξS = NC(CO)C(=O)O; ξA = CC(N)C(=O)O

Experiments:
[1] = system: Streptococcus pneumoniae G9a; type: cell-based
Procedure: (§1) Determination of the Minimum Inhibitory Concentration (MIC):
(§2) The MIC is determined in the liquid dilution test in accordance with the NCCLS guidelines. Overnight cultures of Staphylococcus aureus 133, Enterococcus faecalis 27159, E. faecium 4147 and Streptococcus pneumoniae G9a are incubated with the described test substances in a 1:2 dilution series. The MIC determination is carried out with a cell count of 10^5 microbes per ml in Isosensitest medium (Difco, Irvine/USA), with the exception of S. pneumoniae which is tested in BHI broth (Difco, Irvine/USA) with 10% bovine serum with a cell count of 10^6 microbes per ml. The cultures are incubated at 37° C. for 18-24 hours, S. pneumoniae in the presence of 10% CO2.
(§3) The MIC is defined as the lowest concentration of each substance at which no visible bacterial growth occurs any longer. The MIC values are reported in μg/ml.

[2] = system: Staphylococcus aureus 133; type: cell-based
Procedure: as §1, §2, §3

[3] = system: Enterococcus faecalis 27159; type: cell-based
Procedure: as §1, §2, §3

[4] = Chemical stability in alkaline aqueous solution (buffer pH 7.8, HPLC); type: physicochemical; details: aqueous neutral to basic medium (pH>7)
Procedure: Determination of the Chemical Stability in Stability Alkaline Aqueous Solution:
0.3 mg of the test substance are dissolved in a mixture of 0.25 ml of acetonitrile, 0.25 ml of DMSO and 0.5 ml of buffer of pH 7.8 (consisting of 111 mg (1 mmol) of calcium chloride, 7.91 g (100 mmol) of ammonium bicarbonate, 100 ml of acetonitrile ad 1000 ml) and left to stand at room temperature. A 5 μl aliquot is taken from the solution once an hour and analyzed by HPLC (method 57). The concentration of the test compound at time 0 h, indicated by the UV absorption (1E), is set equal to 100%, and the decrease over time is observed. At the same time, the increase in the ring-opened degradation product is observed.

[5] = amide bond; 28-membered ring; Et3N (Pfp ester); CHCl3; 0.11 mM; 3 steps
[6] = amide bond; 28-membered ring; HATU/NMM; DMF; 0.0 °C
[7] = Isosensitest medium, 10^5 microbes per ml, 37° C., 18-24 hours

Row | Molecule | MIC S. pneumoniae G9a ([1]; G9a) | MIC S. aureus 133 [2]; 133 | MIC E. faecalis ICB 27159 [3]; 27159 | other results
1 | CC[C@H](C)[C@@H]1NC(=O)[C@@H](CCCNC(=N)N)NC(=O)[C@H](CC(C)C)NC(=O)[C@H]([C@H](O)C(C)C)NC(=O)[C@@H](NC(=O)[C@H](CC(C)(C)C)NC(=O)[C@H](N)CC(C)(C)C)[C@@H](c2ccccc2)NC(=O)[C@H](CO)NC(=O)C(C)NC(=O)CNC(=O)[C@H]([C@H](C)O)NC1=O (stereo partly drawn) [Example 13, [3-tert-Butyl-D-alanyl]-[3-tert-butyl-L-alanyl]-[(3R)-3-amino-L-phenylalanyl]-[(3R)-3-hydroxy-L-leucyl]-L-leucyl-D-arginyl-L-isoleucyl-L-allothreonyl-glycyl-L-alanyl-L-serine C^1.11-N^3.3-lactam bistrifluoroacetate] (H-[d(tBuAla)][tBuAla][Phe(βR-NH)][Leu(3R-OH)]L[dR]I[aThr]G[ξA]S; lactam 3-C) | 0.5 µg/mL (≈ 0.402 µM) | 0.25 µg/mL (≈ 0.201 µM) | 0.5 µg/mL (≈ 0.402 µM) | 
2 | CC[C@H](C)[C@@H]1NC(=O)[C@@H](CCCNC(=N)N)NC(=O)[C@H](CC(C)C)NC(=O)[C@H]([C@H](O)C(C)C)NC(=O)[C@@H](NC(=O)[C@H](CC(C)(C)C)NC(=O)[C@H](N)CC(C)(C)C)[C@@H](c2ccccc2)NC(=O)[C@H](CO)NC(=O)C([C@H](O)C(N)=O)NC(=O)CNC(=O)[C@H](CO)NC1=O (stereo partly drawn) [Example 14, [3-tert-Butyl-D-alanyl]-[3-tert-butyl-L-alanyl]-[(3R)-3-amino-L-phenylalanyl]-[(3R)-3-hydroxy-L-leucyl]-L-leucyl-D-arginyl-L-isoleucyl-L-seryl-glycyl-[(3S)-3-hydroxy-L-asparaginyl]-L-serine C^1.11-N^3.3-lactam bistrifluoroacetate] (H-[d(tBuAla)][tBuAla][Phe(βR-NH)][Leu(3R-OH)]L[dR]ISG[X1]S; lactam 3-C) | 0.125 µg/mL (≈ 0.0969 µM) | 0.25 µg/mL (≈ 0.194 µM) | 0.5 µg/mL (≈ 0.388 µM) | 
3 | CC[C@H](C)[C@@H]1NC(=O)[C@@H](CCCNC(=N)N)NC(=O)[C@H](CC(C)C)NC(=O)[C@H]([C@H](O)C(C)C)NC(=O)[C@@H](NC(=O)[C@H](CC(C)(C)C)NC(=O)[C@H](N)CC(C)(C)C)[C@@H](c2ccccc2)NC(=O)C(CO)NC(=O)[C@H](CO)NC(=O)CNC(=O)[C@H](CO)NC1=O (stereo partly drawn) [Example 23, [3-tert-Butyl-D-alanyl]-[3-tert-butyl-L-alanyl]-[(3R)-3-amino-L-phenylalanyl]-[(3R)-3-hydroxy-L-leucyl]-L-leucyl-D-arginyl-L-isoleucyl-L-seryl-glycyl-L-seryl-L-serine C^1.11-N^3.3-lactam bistrifluoroacetate] (H-[d(tBuAla)][tBuAla][Phe(βR-NH)][Leu(3R-OH)]L[dR]ISGS[ξS]; lactam 3-C) | 0.25 µg/mL (≈ 0.201 µM) | 0.5 µg/mL (≈ 0.401 µM) | 1 µg/mL (≈ 0.802 µM) | 
4 | CC[C@H](C)C1NC(=O)[C@H]([C@H](O)C(C)C)NC(=O)[C@@H](NC(=O)[C@H](CC(C)(C)C)NC(=O)[C@H](N)CC(C)(C)C)[C@@H](c2ccccc2)NC(=O)C(CO)NC(=O)[C@H](CO)NC(=O)CNC(=O)[C@H]([C@H](C)O)NC(=O)[C@H]([C@@H](C)CC)NC(=O)[C@@H](CCCNC(=N)N)NC1=O (stereo partly drawn) [Example 35, [3-tert-Butyl-D-alanyl]-[3-tert-butyl-L-alanyl]-[(3R)-3-amino-L-phenylalanyl]-[(3R)-3-hydroxy-L-leucyl]-L-isoleucyl-D-arginyl-L-isoleucyl-L-allothreonyl-glycyl-L-seryl-L-serine C^1.11-N^3.3-lactam bistrifluoroacetate] (H-[d(tBuAla)][tBuAla][Phe(βR-NH)][Leu(3R-OH)][ξIle][dR]I[aThr]GS[ξS]; lactam 3-C) | 0.5 µg/mL (≈ 0.397 µM) | 0.25 µg/mL (≈ 0.198 µM) | 1 µg/mL (≈ 0.793 µM) | 
5 | CCCC[C@@H]1NC(=O)[C@H]([C@H](O)C(C)C)NC(=O)[C@@H](NC(=O)[C@H](Cc2cccnc2)NC(=O)[C@H](N)C[Si](C)(C)C)[C@@H](c2ccccc2)NC(=O)C(CO)NC(=O)[C@H](C)NC(=O)CNC(=O)[C@H]([C@H](C)O)NC(=O)[C@H]([C@@H](C)CC)NC(=O)[C@@H](CCCNC(=N)N)NC1=O (stereo partly drawn) [Example 41, [3-Trimethylsilyl-D-alanyl]-[3-(3-pyridyl)-L-alanyl]-[(3R)-3-amino-L-phenylalanyl]-[(3R)-3-hydroxy-L-leucyl]-L-norleucyl-D-arginyl-L-isoleucyl-L-allothreonyl-glycyl-L-alanyl-L-serine C^1.11-N^3.3-lactam tristrifluoroacetate] (H-[dAla(TMS)][3Pal][Phe(βR-NH)][Leu(3R-OH)][Nle][dR]I[aThr]GA[ξS]; lactam 3-C) |  |  |  | MIC S. pneumoniae G9a ([1]; BHI broth with 10% bovine serum, 10^6 microbes per ml, 37° C., 18-24 hours, 10% CO2): 0.25 µg/mL (≈ 0.195 µM); MIC S. aureus 133 [2, 7]: 0.25 µg/mL (≈ 0.195 µM); MIC E. faecalis ICB 27159 [3, 7]: 2 µg/mL (≈ 1.56 µM)
6 | CC[C@H](C)[C@@H]1NC(=O)[C@@H](CCCNC(=N)N)NC(=O)[C@H](CC(C)C)NC(=O)[C@H]([C@H](O)C(C)C)NC(=O)[C@@H](NC(=O)[C@H](CC(C)(C)C)NC(=O)[C@H](N)CC(C)(C)C)[C@@H](c2cccnc2)NC(=O)C(CO)NC(=O)C([C@H](O)C(N)=O)NC(=O)CNC(=O)[C@H]([C@H](C)O)NC1=O (stereo partly drawn) [Example 44, [3-tert-Butyl-D-alanyl]-[3-tert-butyl-L-alanyl]-[(3R)-3-amino-3-(pyridin-3-yl)-L-alanyl]-[(3R)-3-hydroxy-L-leucyl]-L-leucyl-D-arginyl-L-isoleucyl-L-allothreonyl-glycyl-[(3S)-3-hydroxy-L-asparaginyl]-L-serine C^1.11-N^3.3-lactam tristrifluoroacetate] | 0.125 µg/mL (≈ 0.0958 µM) | 0.25 µg/mL (≈ 0.192 µM) | 0.5 µg/mL (≈ 0.383 µM) | 
7 | CC[C@H](C)[C@@H]1NC(=O)[C@@H](CCCNC(=N)N)NC(=O)[C@H](CC(C)C)NC(=O)[C@H]([C@H](O)C(C)C)NC(=O)[C@@H](NC(=O)[C@H](CC(C)C)NC(=O)[C@H](N)CC(C)C)[C@@H](c2ccccc2)OC(=O)[C@H](CO)NC(=O)[C@H]([C@H](O)C(N)=O)NC(=O)CNC(=O)[C@H]([C@H](C)O)NC1=O [Lysobactin, lysobactin] (H-[dL]L[Phe(3R-OH)][Leu(3R-OH)]L[dR]I[aThr]G[Asn(3S-OH)]S; ester 3-C (inferred); N-terminus assumed) | 0.063 µg/mL (≈ 0.0494 µM) | 0.5 µg/mL (≈ 0.392 µM) | 0.5 µg/mL (≈ 0.392 µM) | hydrolysis (opening of the lactone) in aqueous medium [4]: hydrolyzed in an aqueous neutral to basic medium (pH>7) within days
8 | N^2.1-(Benzyloxycarbonyl)-[(3R)-3-amino-L-alanyl)]-[(3R)-3-hydroxy-L-leucyl]-L-leucyl-D-arginyl-L-isoleucyl-L-allothreonyl-glycyl-[(3S)-3-hydroxy-L-asparaginyl]-L-serine C^1.9-N^3.1-lactam hydrochloride |  |  |  | ring closure, yield after HPLC [5]: 15.9%
9 | [(3R)-N^2-(Benzyloxycarbonyl)-3-amino-L-phenylalanyl]-[(3R)-3-hydroxy-L-leucyl]-L-leucyl-D-arginyl-L-isoleucyl-L-allothreonyl-glycyl-L-allothreonyl-L-aserinate C^1.9-N^3.1-lactam trifluoroacetate |  |  |  | ring closure, crude yield [6]: 86%
